Structures are written as SMILES. ≈ marks a conversion by molar mass, not a printed value. Bounds are passed on as bounds.

For the series the following is noted: buffer; pH 7.4; 200.0 µM.
Consider `Cn1ccc(=S)c2ccccc21`, for which the kinetic solubility is 25.2 µg/mL (≈ 144 µM).
`CN1CCN(CC(=O)Nc2c(C(=O)c3ccccc3)oc3ccccc23)CC1`: the solubility (kinetic) was 48.4 µg/mL (≈ 128 µM).
Then `O=C(Nc1ccc(NC(=O)C2CC2)cc1)c1ccco1`, with > 40.5 µg/mL; and `CC1(C)CC(NC(=O)C(=O)NCCc2ccccc2)CC(C)(C)N1`, with > 49.7 µg/mL; and `COc1ccc(-c2csc3nc(-c4ccccc4F)oc(=O)c23)cc1`, with < 0.8 µg/mL.
The figure for `O=C1c2cccc3cccc(c23)N1Cc1cccc(F)c1` is 2.6 µg/mL (≈ 9.38 µM).
The figure for `CC1=CC(=C(C#N)C#N)C=C(C)N1CCC(C)C` is 1.7 µg/mL (≈ 7.04 µM).
Molecule `Cc1cc(CNC(=O)c2cccnc2Cl)c2ccccc2n1` showed a solubility (kinetic) of 39.1 µg/mL (≈ 125 µM).
For `CN(C1CCCCC1)S(=O)(=O)c1ccc(SCC(=O)C(C)(C)C)nc1`, the kinetic solubility turned out to be 3.2 µg/mL (≈ 8.32 µM).
Then `Cc1ccc(C(=O)OCC(=O)NC2CCCC2)cc1`, with 22.5 µg/mL (≈ 86.1 µM).
Then `COc1ccc(-c2nc(C#N)c(N3CCC(C)CC3)o2)cc1`, with 0.3 µg/mL (≈ 1.01 µM); and `O=C(OCN1C(=O)C(=O)c2ccccc21)c1ccc(Cl)cc1`, with 44 µg/mL (≈ 139 µM); and `COc1ccc(NC(=O)Cn2cc(C#N)c3ccccc32)cc1`, with < 0.2 µg/mL.
On to `O=c1[nH]c(=S)n(-c2ccccc2)c(O)c1C=NCc1ccccn1`, for which the kinetic solubility is > 50.8 µg/mL.
The figure for `COc1cc2c(cc1OC)C(c1cc([N+](=O)[O-])ccc1O)NCC2` (configuration not stated) is > 49.6 µg/mL; for `CC(CN(C)C)CN1c2ccccc2CCc2ccccc21.O=C(O)/C=C\C(=O)O` (configuration not stated) it is > 61.6 µg/mL.
The figure for `COc1cccc(CNC(=O)COC(=O)c2nn(C)c(=O)c3ccccc23)c1` is > 57.2 µg/mL; for `COc1cccc2[nH]c(C(=O)NCc3ccccc3)cc12.Cl` it is 10.9 µg/mL; for `COc1cccc(NC(=O)CN(C)C(=O)[C@@H]2CCCN2C(=O)c2cccs2)c1` it is > 60.2 µg/mL.
Then `COc1cccc(-c2noc(CCC(=O)NCCc3ccccc3)n2)c1`, with 44.3 µg/mL (≈ 126 µM); and `O=S(=O)(Nc1cccc(S(=O)(=O)N2CCCC2)c1)c1cccs1`, with 51.9 µg/mL (≈ 139 µM); and `CC(C)OCCCNC(=O)COc1ccc2oc3c(c2c1)CCCC3`, with 48.1 µg/mL (≈ 139 µM).
With `O=C(COC(=O)c1ccc(Br)o1)Nc1cccc(S(=O)(=O)N2CCCCC2)c1`, the kinetic solubility was 9.3 µg/mL (≈ 19.7 µM).
Take `COc1cccc2cc(C(=O)NCc3ccc(C)cc3)c(=N)oc12`: the kinetic solubility worked out at 3 µg/mL (≈ 9.31 µM).
On to `COc1ccc2[nH]cc(CCNC(=S)NCCc3ccccc3)c2c1`, for which the kinetic solubility came out at 26.3 µg/mL (≈ 74.4 µM).
Then `COc1ccccc1NC(=O)C1CC(C)OC1=O` (configuration not stated), with > 37.4 µg/mL; and `Cc1ccc(C(=O)C[n+]2ccccc2)cc1.[I-]`, with > 50.9 µg/mL.
In turn, `COC(=O)c1sc(=S)n(Cc2ccccc2)c1C` came in with a kinetic solubility of 7.1 µg/mL (≈ 25.4 µM).
The molecule `COc1ccc(-c2cc(C(=O)NCc3ccco3)c3ccccc3n2)c(OC)c1` registered a kinetic solubility of 8.3 µg/mL (≈ 21.4 µM).
Then `COc1cccc(C(=O)Nc2ccc3c(c2)n(C)c(=O)n3C)c1`, with > 46.7 µg/mL; and `O=C(CNC(=O)c1ccccc1F)N/N=C/c1cccs1`, with > 45.8 µg/mL; and `O=C(COc1cc(F)ccc1[N+](=O)[O-])NCC1CCCO1` (configuration not stated), with > 44.7 µg/mL.
In the case of `COc1ccc(C)cc1NC(=O)C(C)N1CCOCC1.Cl` (configuration not stated), the solubility (kinetic) is > 47.2 µg/mL.
Then `O=C(Nc1cccc([N+](=O)[O-])c1)Nc1cccs1`, with 32.3 µg/mL (≈ 123 µM).
Then `COc1ccccc1Nc1nc(Cl)c(C=O)s1`, with 12.1 µg/mL (≈ 45 µM).
The figure for `O=C(C(=O)N1CCCCCC1)c1c[nH]c2ccccc12` is > 40.5 µg/mL; for `Cc1ccc(OCC(=O)N2CCCCCCC2)cc1C` it is 22.6 µg/mL (≈ 82.1 µM).
With `O=C(NCc1ccc(F)cc1)c1cc2ccccc2o1`, the kinetic solubility was 34.9 µg/mL (≈ 130 µM).
The figure for `COc1cc(NS(=O)(=O)c2ccc(NC(=S)NC(C)=O)cc2)nc(OC)n1` is > 61.7 µg/mL; for `CC1CC(C)CN(C(=O)COC(=O)c2nccnc2N)C1` (configuration not stated) it is > 43.9 µg/mL; for `COc1ccc(NS(=O)(=O)c2ccc(C(=O)N3CCC(C)CC3)cc2)cc1` it is > 58.3 µg/mL.
The figure for `CCC(=O)c1ccc(OCC(=O)Nc2ccc3c(c2)OCCO3)cc1` is 12.2 µg/mL (≈ 35.7 µM).
Turning to `Cc1cccc(C(=O)OCC(=O)NC23CC4CC(CC(C4)C2)C3)c1O`, the kinetic solubility is 8.9 µg/mL (≈ 25.9 µM).
The figure for `Cc1cc(C)cc(NC(=O)CN2C(=O)NC(Cc3c[nH]c4ccccc34)C2=O)c1` (configuration not stated) is 2 µg/mL (≈ 5.12 µM); for `CCN(c1cccc(C)c1)C1C(=O)c2ccccc2N1C(C)=O` (configuration not stated) it is > 46.3 µg/mL.
For the molecule `Cc1ccc(NC(=O)COc2cccc3ccccc23)c(O)c1`, the kinetic solubility was found to be 3.8 µg/mL (≈ 12.4 µM).
The figure for `CCOc1ccc(CNC(c2ccccc2)c2ccccc2)cc1.Cl` is < 0.8 µg/mL; for `Cc1[nH]c2c(Cl)cccc2c(=O)c1CN1CCCCCC1` it is > 45.7 µg/mL; for `O=C1NC(=O)/C(=C/c2cccc3ccccc23)S1` it is > 38.3 µg/mL.
The figure for `OCC1OC(n2cnc3c(NCCc4ccccc4)ncnc32)C(O)C1O` (configuration not stated) is > 55.7 µg/mL; for `O=C1NC2(CCCCC2)C(=O)N1c1ccc(Cl)cc1` it is 3.8 µg/mL (≈ 13.6 µM); for `Cc1cccc(NC(=S)NCCc2ccccc2)c1C` it is 4.1 µg/mL (≈ 14.4 µM).
The figure for `Cc1ccnc(SCC(=O)NC2CCCCCC2)n1` is 33 µg/mL (≈ 118 µM); for `COCCNCC(=O)N1c2ccccc2Sc2ccccc21` it is 38.1 µg/mL (≈ 121 µM).
Regarding `CC(C)=CC(=O)N1CC[C@@H](N2CCN(c3ccccc3F)CC2)[C@H](O)C1`, the solubility (kinetic) was > 54.2 µg/mL.
As for `O=C(Cn1cc([N+](=O)[O-])ccc1=O)N1CCCc2ccccc21`, the kinetic solubility is > 47 µg/mL.
Then `Cc1csc(NC(=O)c2cncc(Br)c2)n1`, with 4.7 µg/mL (≈ 15.8 µM).
`Cc1ccc(-c2nc(=S)c3c(n2Cc2cccnc2)CC(C)(C)OC3)cc1`: the kinetic solubility is > 56.6 µg/mL.
Then `CCCCC(=O)Nc1cnc(NC(=O)c2ccco2)cc1C`, with > 45.2 µg/mL; and `c1ccc(Oc2nc(-c3ccccn3)nc3ccccc23)cc1`, with 43.1 µg/mL (≈ 144 µM).
Then `COC(=O)N1CCN(CCc2ccccc2)CC1`, with > 37.2 µg/mL.
Then `N/C(=N\OC(=O)/C=C/c1ccccc1)c1ccncc1`, with 34.6 µg/mL (≈ 129 µM); and `COc1ccc2nc(SCC(=O)NC3CCCCC3)[nH]c2c1`, with > 47.9 µg/mL.
On to `COc1ccc(CCC(C)NCc2ccccc2OC)cc1` (configuration not stated), for which the kinetic solubility came out at 32 µg/mL (≈ 107 µM).
Then `Cc1ccc(CNc2nc3ccccc3n2C)o1`, with > 36.2 µg/mL.
The figure for `CCN1CCN(S(=O)(=O)c2ccc(OC)c3ccccc23)CC1` is 29.2 µg/mL (≈ 87.3 µM); for `O=C(Nc1nc2ccccc2c(=O)s1)c1ccc(F)cc1Cl` it is 0.9 µg/mL (≈ 2.69 µM).
The figure for `COc1ccccc1NC(=O)/C(C#N)=C/c1cccn1C` is 0.6 µg/mL (≈ 2.13 µM); for `O=C(Nc1ccc([N+](=O)[O-])cc1)N1CCc2ccccc2C1` it is 22 µg/mL (≈ 74 µM).
As for `Cc1csc(SCC(=O)Nc2sccc2C(N)=O)n1`, the solubility (kinetic) is 43.8 µg/mL (≈ 140 µM).
Then `CCOC(=O)N1CCc2c(sc3ncn(Cc4ccc(F)cc4)c(=O)c23)C1`, with 20.8 µg/mL (≈ 53.7 µM).
The figure for `O=C(COc1cccc2cccnc12)NCc1cccs1` is 37.6 µg/mL (≈ 126 µM).
The molecule `Brc1cccc(CN2CCN(c3ncccn3)CC2)c1` yielded a solubility (kinetic) of 25.2 µg/mL (≈ 75.6 µM).
Then `CSc1ncc(Cl)c(C(=O)Nc2ccc(NC(C)=O)cc2)n1`, with 18.6 µg/mL (≈ 55.2 µM).
The molecule `CCC(=O)c1ccc(OCC(=O)NC2(C#N)CCCCC2)cc1` had a kinetic solubility of 45.4 µg/mL (≈ 144 µM).
Then `CCC(=O)NC(=S)Nc1ccc(S(=O)(=O)NC2CCCCC2)cc1`, with 0.4 µg/mL (≈ 1.08 µM); and `CCN(Cc1cc2ccccc2[nH]c1=O)C(=O)c1cccc([N+](=O)[O-])c1`, with 39.3 µg/mL (≈ 112 µM).
Consider `COc1cc2c(cc1OC)C(C)N(C(=O)c1c(C)noc1C)CC2` (configuration not stated), for which the kinetic solubility was 2.7 µg/mL (≈ 8.17 µM).
The molecule `Cc1ccc2c(C(=O)CN3CCCC(C)C3)c(C)[nH]c2c1` (configuration not stated) gave a kinetic solubility of 39.3 µg/mL (≈ 138 µM).
`CSc1ccc(CN2CCCN(C)CC2)cc1` displayed a kinetic solubility of 22.1 µg/mL (≈ 88.3 µM).
Then `O=C(O)c1ccc(NCc2nc3ccccc3n2Cc2ccccc2)cc1`, with > 53.6 µg/mL; and `CCc1ccc(NC(=O)C(C)OC(=O)/C=C/c2ccc(O)c(OC)c2)cc1` (configuration not stated), with 4.1 µg/mL (≈ 11.1 µM).
Consider `O=C(COC(=O)/C=C/c1cccs1)Nc1ccc(F)cc1`, for which the solubility (kinetic) was 8.4 µg/mL (≈ 27.5 µM).
The figure for `CCOc1ccc(S(=O)(=O)Nc2ccc3c(c2)OCO3)cc1` is 45.4 µg/mL (≈ 141 µM).
Then `COc1ccc(CC(C)CC(=O)Nc2ccc(OC)cc2)cc1` (configuration not stated), with 4.6 µg/mL (≈ 14.7 µM).
Then `CN(C)C(=O)CN1C(=O)NC2(CCCc3ccccc32)C1=O` (configuration not stated), with > 45.2 µg/mL; and `O=C(Nc1cccc2ccccc12)c1ccc([N+](=O)[O-])cc1`, with 1 µg/mL (≈ 3.42 µM).
The molecule `CCOC(=O)c1ccc(NC(=O)C2COc3ccccc3O2)cc1` (configuration not stated) had a solubility (kinetic) of 2.1 µg/mL (≈ 6.42 µM).
The figure for `N#C/C(=C\c1ccccn1)c1ccccn1` is > 31.1 µg/mL.
Then `Cc1ccc2c(c1)CCCN2C(=O)c1cc(C)c(C)s1`, with 3.9 µg/mL (≈ 13.7 µM).
Turning to `CN1CC(C(=O)c2ccccc2)C(c2ccccc2)C1` (configuration not stated), the kinetic solubility is > 39.8 µg/mL.
Consider `CCc1ccc(S(=O)(=O)n2c(C)nc3ccccc32)cc1`, for which the solubility (kinetic) turned out to be 40.3 µg/mL (≈ 134 µM).
Then `Nc1cccc(C(=O)O)c1`, with > 20.6 µg/mL.
The molecule `O=C(CN1C(=O)C(=O)N(Cc2ccco2)C1=O)NC1CCCCC1` displayed a kinetic solubility of 45.8 µg/mL (≈ 137 µM).
As to `O=C(c1ccc([N+](=O)[O-])cc1)N1C=CC(C(F)(F)F)=NCC1`, the solubility (kinetic) was > 47 µg/mL.
As to `CCn1c(CNC(=O)c2ccc(F)cc2)cc2ccccc21`, the solubility (kinetic) was determined as 1.5 µg/mL (≈ 5.06 µM).
The figure for `CC1(C(=O)OCC(=O)Nc2ccc(S(=O)(=O)N3CCOCC3)cc2)CC1(Cl)Cl` (configuration not stated) is 60.5 µg/mL (≈ 134 µM); for `COc1cc(C(=O)O)cc(NC(=O)c2ccco2)c1OC` it is > 43.7 µg/mL; for `Cc1nnc(SCC(=O)Nc2ccc(N(C)C)cc2)n(N)c1=O` it is > 50.2 µg/mL.
Then `CCCOc1ccc(CN(C)c2ncnc(N)n2)cc1`, with 13.5 µg/mL (≈ 49.4 µM); and `COc1ccc(NC(=O)CN(C)CC(=O)N2CCCCCC2)cc1`, with 49 µg/mL (≈ 147 µM).
The figure for `Cc1cc(OC(=O)c2ccc(F)cc2)c([N+](=O)[O-])c(=O)[nH]1` is 43.2 µg/mL (≈ 148 µM).
